In patent US4616028A, “Substituted 2,3,4,9-tetrahydro-1H-carbazole-1-acetic acid derivatives, compositions and use” (American Home Products Corporation, priority 1985, dated 1986):
Counter-ions that a name gives are not always drawn.

Columns and labels:
inflamed paw = test: Paw Pressure Test in the Rat (Freund's adjuvant inflamed paw, pain threshold); type: in vivo, rat (male Sprague Dawley); conditions: for ED50: po, ED50, rat (second results table)
Excerpt: A still further test used to determine the utility of the compounds of the present invention is designated: PAW PRESSURE TEST IN THE RAT
The objective of this test is to assess the potency of peripheral and central acting drugs in inhibiting the reaction of rats to painful stimulation applied to an inflamed paw.
Male Sprague Dawley rats (180-200 g) are used. The animals are fasted overnight prior to drug administration.
(§1) Drug Preparation and Administration:
Freund's Complete Adjuvant (FCA) is prepared by suspending 5 mg killed and dried mycobacterium butyricum (Difco) in 1 ml liquid paraffin. The test compounds are dissolved, or suspended with a few drops of Tween 80, in distilled water according to their solubility. They are administered by gastric gavage in a volume of 0.5 ml/100 g body weight to groups of 10 animals.
Ten rats are used per group. The method is essentially that described by Randall, et al., Arch. Int. Pharmacodyn. 111, 409 (1957) and the apparatus which is used to apply pressure to the paw (Analgesy-meter for the rat paw, Ugo Basile from Coulbourn Instruments) is a modification of that described by Gilfoil et al., J. Pharmacol, 142, 1 (1963). The instrument is basically a device which exerts a force that increases at a constant rate. The force is continuously monitored by a pointer moving along a linear scale and is measured in grams. The inflammatory reaction is induced in the left hind paw of rats by injecting 0.1 ml of Freund's adjuvant intradermally. The test compound or vehicle is administered 24 hours after the adjuvant. Prior to drug administration the rats are selected for their paw sensitivity. Rats responding to a pain threshold greater than 10 g applied to the inflamed paw are rejected. The pain threshold (vocalization) is determined 1 and 3 hours later in the inflamed paw and the normal paw of the treated and control groups. The higher of the 2 readings will be considered as representative of the drug effect on the pain threshold.
Presentation of results and Criteria for Activity:
Each animal which has a reading 1.5 times greater than the mean reading of the control-group will be considered as responsive to treatment. The number of animals showing an analgesic effect is then determined in each group.
The ED50 (dose which causes analgesia in 50% of the animals) using at least 3 doses is then determined, by the method described in Litchfield et al., J. Pharmacol. Exp. Ther., 96, 99 (1949).

Adjuvant Edema = test: Preventative Adjuvant Edema (Freund's complete adjuvant, hind paw volume); type: in vivo, rat (male Sprague Dawley); conditions: for ED50 / inhibition in vivo at 25 mg/kg: po; for ED50: ED50, rat (second results table); for Preventative Adjuvant Edema % Inhibition: 25 mg/kg, p.o., rat; for inhibition in vivo at 25 mg/kg: 72 h, rat (second results table), read-out: Preventative Adjuvant Edema percent inhibition
Procedure: This test is a primary screen for anti-inflammatory drugs.
Male Sprague Dawley rats (180-200 g) are used. The animals have free access water but food is withdrawn 18 hours before testing.
Drug Preparations and Administration:
Freund's complete adjuvant is prepared by suspending 5 mg killed and dried Mycobacterium butyricum (Difco) in 1 ml liquid paraffin. The test compounds are dissolved in distilled water or suspended in distilled water with a few drops of Tween 80 according to their solubility. For primary screening all drugs are administrated by gastric lavage at the arbitrary dosage of 100 mg/kg, p.o. in a volume of 0.5 ml/100 g body weight to groups of 10 animals.
The method is essentially that described by Wax et al., J. Pharmacol. Exp. Ther., 192, 166-171 (1975). Groups of rats are injected intradermally in the left hind paw with 0.1 ml of Freund's complete adjuvant. The test compound or vehicle is administrated before the adjuvant, 24 hours and 48 hours after the adjuvant (day 0, 1 and 2). The injected hind paw volume is measured before the injection of adjuvant and 24 hrs. after the last drug administration (day 3) by means of a plethysmometer (Buxco Electronics Inc.). The difference between then hind paw volume on day 0 and day 3 represents the edema volume. Phenylbutazone (50 mg/kg, p.o.) is included as a positive control.
The mean edema volume (expressed as ml±SEM) is calculated for each group and the percentage protection conferred by the drug is calculated:
where c is the mean edema volume for the untreated controls and t is the mean edema volume for the drug treated group.

Phenylquinone Writhing = test: Phenylquinone-induced writhing in mice; type: in vivo, mouse (male Swiss albino); conditions: for ED50: ED50, mice (second results table); for Phenylquinone Writhing in Mice % Inhibition: p.o.
Procedure: A further test used to determine the utility of the compounds of the present invention is designated: DRUG EFFECTS ON PHENYLQUINONE-INDUCED WRITHING IN MICE […]
The objective of this test is to determine the ability of test drugs to inhibit the nociceptive (pain) response of mice injected with a chemical irritant. This test is a primary screen for both peripheral and centrally acting analgesic drugs.
Male Swiss albino mice (15-25 g). The animals are fasted for 18 hours prior to use but have free access to water.
as §1
Drugs are dissolved or suspended according to their solubility in 0.5% methyl cellulose or 0.5% Tween 80. They are administered by gastric lavage in a volume of 5 ml/kg. For primary screening all drugs are administered at the arbitrary dosage of 200 mg/kg, p.o. to a group of 10 mice.
A modification of the method of Siegmund at el., Proc. Soc. Exp. Biol. Med., 95, 729-731 (1957) is used. Groups of 5 mice are dosed with the test compound or vehicle control. Sixty minutes later the animals are injected i.p. with 0.3 ml/20 g body weight of a 0.02% solution of phenylquinone (PBQ; 2-phenyl-1,4-benzoquinone) and placed in individual observation boxes. The numer of writhing or abdominal squirming movements made by each mouse during the following 15 min. period is counted. The experiment is repeated with another group of 5 mice and the mean number of writhes per mouse for a group of 10 mice is calculated.
Drug treated and vehicle-treated control groups are compared and the percentage protection conferred by the drug is calculated:
Percentage protection=(c-t)100/c […]
where c=mean number of writhes in the control group where t=mean number of writhes in the test drug group

[1] = Mus musculus, po, mice (second results table), read-out: Phenylquinone Writhing in Mice percent inhibition

SMILES | ED50 (Phenylquinone Writhing; Mus musculus, po) | inhibition in vivo at 25 mg/kg (Adjuvant Edema) | inhibition in vivo at 25 mg/kg (Phenylquinone Writhing; [1]) | also measured
C=CC[C@@H]1CC[C@](CC)(CC(=O)O)c2[nH]c3c(C)c(F)ccc3c21 (relative stereo) [Example 29] | 12.3 mg/kg |  |  | ED50 (inflamed paw): 0.1 mg/kg; ED50 (Adjuvant Edema): 6.4 mg/kg
CCc1cccc2c3c([nH]c12)C(CC)(CC(=O)O)CCC3Cc1ccccc1 (single isomer, unassigned) [Example 2 Isomer B, 1,8-Diethyl-2,3,4,9-tetrahydro-4-(phenylmethyl)-1H-carbazole-1-acetic Acid] |  |  |  | Preventative Adjuvant Edema % Inhibition (Adjuvant Edema): 38%; Phenylquinone Writhing in Mice % Inhibition (Phenylquinone Writhing; 25 mg/kg): 55%
C=CC[C@@H]1CC[C@](CC)(CC(=O)O)c2[nH]c3c(Cl)ccc(C)c3c21 (relative stereo) [Example 34] | 7.6 mg/kg |  |  | ED50 (inflamed paw): 0.46 mg/kg; ED50 (Adjuvant Edema): 2.6 mg/kg
C=CC[C@@H]1CC[C@](CC)(CC(=O)O)c2[nH]c3c(C)c(Cl)ccc3c21 (relative stereo) [Example 30, cis-7-chloro-1-ethyl-2,3,4,9-tetrahydro-8-methyl-4-(2-propenyl)-1H-carbazole-1-acetic acid] | 2.6 mg/kg |  |  | ED50 (inflamed paw): 0.007 mg/kg; ED50 (Adjuvant Edema): 15 mg/kg
C=CC[C@@H]1CC[C@](CC)(CC(=O)O)c2[nH]c3c(I)cccc3c21 (relative stereo) [Example 22] | 17 mg/kg | 46% |  | 
C=CC[C@@H]1CC[C@](CC)(CC(=O)O)c2[nH]c3c(Cl)c(Cl)ccc3c21 (relative stereo) [Example 32, cis-7,8-dichloro-1-ethyl-2,3,4,9-tetrahydro-4-(2-propenyl)-1H-carbazole-1-acetic acid] | 2 mg/kg | 22% |  | ED50 (inflamed paw): 0.08 mg/kg
C=CC(C)(C)C1CCC(CC)(CC(=O)O)c2[nH]c3c(C)c(Cl)ccc3c21 (centres unmarked) [Example 35] |  | 30% | 28% | 
C=CC[C@@H]1CC[C@](CC)(CC(=O)O)c2[nH]c3cccc(Br)c3c21 (relative stereo) [Example 19] |  | 50% | 52% | 
C=CC[C@@H]1CC[C@](CC)(CC(=O)O)c2[nH]c3cc(CC)ccc3c21 (relative stereo) [Example 7] | 10 mg/kg | 36% |  | ED50 (inflamed paw): 0.01 mg/kg
C=CCC1CCC(CCC)(CC(=O)O)c2[nH]c3c(CC)cccc3c21 (centres unmarked) [Example 21] |  | 24% | 21% | 
C=CC[C@@H]1CC[C@](CC)(CC(=O)O)c2[nH]c3c(C(C)C)cccc3c21 (relative stereo) [Example 10] |  | 43% | 27% | 
CCCC1CCC(CC)(CC(=O)O)c2[nH]c3c(CC)cccc3c21 (centres unmarked) [4-propyl-1,8-diethyl-2,3,4,9-tetrahydro-1H--carbazole-1-acetic acid, reference compound] |  |  |  | Phenylquinone Writhing in Mice % Inhibition (Phenylquinone Writhing; 25 mg/kg): 15%; Phenylquinone Writhing in Mice % Inhibition (Phenylquinone Writhing; 200 mg/kg): 56%
C=CC[C@@H]1CC[C@](CC)(CC(=O)O)c2[nH]c3cccc(Cl)c3c21 (relative stereo) [Example 17] |  |  | 35% | ED50 (Adjuvant Edema): 6.6 mg/kg
C=CC[C@@H]1CC[C@](CC)(CC(=O)O)c2[nH]c3c(Cl)cccc3c21 (relative stereo) [Example 16] | 11 mg/kg |  |  | ED50 (inflamed paw): 0.89 mg/kg; ED50 (Adjuvant Edema): 13 mg/kg
C=CC[C@@H]1CC[C@](CC)(CC(=O)O)c2[nH]c3c(CC)cccc3c21 [Example 44, (1R-cis)-1,8-Diethyl-2,3,4,9-tetrahydro-4-(2-propenyl)-1H-carbazole-1-acetic Acid Benzenemethanamine Salt (1:1)] |  | 0% | 5% | Paw Pressure Test in the Rat percent inhibition (inflamed paw; dose 1 mg/kg): 30%; Paw Pressure Test in the Rat percent inhibition (inflamed paw; dose 5 mg/kg): 40%
C=CC[C@@H]1CC[C@](CC)(CC(=O)O)c2[nH]c3cc(Br)ccc3c21 (relative stereo) [Example 18] | 3.6 mg/kg |  |  | ED50 (Adjuvant Edema): 17.5 mg/kg
C=CC[C@@H]1CC[C@](CC)(CC(=O)O)c2[nH]c3c(C)ccc(Cl)c3c21 (relative stereo) [Example 38] | 5.4 mg/kg | 48% |  | 
C=CC[C@@H]1CC[C@](CC)(CC(=O)O)c2[nH]c3c(Br)cccc3c21 (relative stereo) [Example 14] |  |  | 38% | ED50 (Adjuvant Edema): 28 mg/kg
C=CCC1CCC(C)(CC(=O)O)c2[nH]c3c(CC)cccc3c21 (centres unmarked) [Example 9] |  | 38% | 37% | 
C=C(C)CC1CCC(CC)(CC(=O)O)c2[nH]c3ccccc3c21 (centres unmarked) [Example 24] |  | 56% | 29% | 
C=CC[C@@H]1CC[C@](CC)(CC(=O)O)c2[nH]c3c(Cl)cc(Cl)cc3c21 (relative stereo) [Example 36] | 7.6 mg/kg | 35% |  | 
CCc1cccc2c3c([nH]c12)C(CC)(CC(=O)O)CCC3Cc1ccccc1 (single isomer, unassigned) [Example 2 Isomer A, 1,8-Diethyl-2,3,4,9-tetrahydro-4-(phenylmethyl)-1H-carbazole-1-acetic Acid] |  |  |  | Preventative Adjuvant Edema % Inhibition (Adjuvant Edema): 6%; Phenylquinone Writhing in Mice % Inhibition (Phenylquinone Writhing; 25 mg/kg): 15%
C=CC[C@@H]1CC[C@](CC)(CC(=O)O)c2[nH]c3c(F)cccc3c21 (relative stereo) [Example 15] |  |  | 27% | ED50 (Adjuvant Edema): 13.3 mg/kg
C=CC[C@@H]1CC[C@](CC)(CC(=O)O)c2[nH]c3c(C)c(Br)ccc3c21 (relative stereo) [Example 37] | 3 mg/kg | 34% |  | 
C=CC[C@@H]1CC[C@](CC)(CC(=O)O)c2[nH]c3ccc(F)cc3c21 (relative stereo) [Example 13] |  | 36% | 20% | 
C=CC[C@@H]1CC[C@](CC)(CC(=O)O)c2c1c1cccc(CC)c1n2C (relative stereo) [Example 43, cis-1,8-Diethyl-2,3,4,9-tetrahydro-9-methyl-4-(2-propenyl)-1H-Carbazole-1-acetic Acid] |  |  |  | ED50 (inflamed paw): 8 mg/kg; inhibition in vivo at 200 mg/kg (Phenylquinone Writhing; Mus musculus, po, dose 200 mg/kg, mice (second results table), read-out: Phenylquinone Writhing in Mice percent inhibition): 32%
C=CC(C)(C)C1CCC(CC)(CC(=O)O)c2[nH]c3c(F)cccc3c21 (centres unmarked) [Example 23] |  | 16% | 41% | 
